Assay results: patent publication US7608619B2, “Substituted oxazole compounds with analgesic activity” (Gruenenthal GmbH, priority 2005, dated 2009)

Biological target: T1, human μ-opiate receptor (Homo sapiens, UniProt P35372)
T1 construct: purchased Nen company, Zaventem, Belgium RB-HOM; host or cells: CHO-K1 cells (membrane preparation)
Assay: Affinity for the human μ-opiate receptor ([3H]-naloxone displacement, SPA, CHO-K1 membrane preparation)
Settings: test substance 1 μmole/l; displacement of 1 nmole/l [3H]-naloxone; percentage inhibition of the specific binding; read-out: μ-opioid receptor, % inhibition [1 μM]
Summary of the method: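 [3H]-naloxone (1 nmol/l) displacement by SPA with WGA beads, using membranes of CHO-K1 cells expressing the receptor, in 50 mmol/l Tris-HCl with 0.05% azide and 0.06% BSA; 90 min at room temperature. Non-specific binding defined with 25 μmol/l naloxone. Value is % inhibition of specific binding at 1 μmol/l test compound.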

T1 sequence (P35372 whole entry): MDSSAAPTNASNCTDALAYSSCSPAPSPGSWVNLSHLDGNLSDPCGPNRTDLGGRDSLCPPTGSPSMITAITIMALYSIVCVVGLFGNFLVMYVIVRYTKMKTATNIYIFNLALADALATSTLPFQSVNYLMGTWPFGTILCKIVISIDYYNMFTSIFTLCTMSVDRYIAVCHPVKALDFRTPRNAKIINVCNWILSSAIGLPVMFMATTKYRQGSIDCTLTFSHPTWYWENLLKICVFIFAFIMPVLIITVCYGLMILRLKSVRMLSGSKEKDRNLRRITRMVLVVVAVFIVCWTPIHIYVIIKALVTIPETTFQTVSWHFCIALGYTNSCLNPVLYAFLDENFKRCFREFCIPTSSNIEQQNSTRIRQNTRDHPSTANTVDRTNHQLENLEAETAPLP

SMILES | inhibition at 1 µM
COc1ccc(N2CCN(c3oc(C(C4CCC(C(c5cccs5)N(C)C)CC4)N4CCc5ccccc5C4)nc3Cc3ccccc3)CC2)cc1 (centres unmarked) [compound 147, ({4-[{4-benzyl-5-[4-(4-methoxyphenyl)-piperazin-1-yl]-oxazol-2-yl}-(3,4-dihydro-1H-isoquinolin-2-yl)-methyl]-cyclohexyl}-thiophen-2-yl-methyl)-dimethylamine] | 91%
CC1CN(c2oc(C(C3CCC(C(c4cccs4)N(C)C)CC3)N3CCc4ccccc4C3)nc2Cc2ccccc2)CC(C)O1 (centres unmarked) [compound 148, ({4-[[4-benzyl-5-(2,6-dimethylmorpholin-4-yl)-oxazol-2-yl]-(3,4-dihydro-1H-isoquinolin-2-yl)-methyl]-cyclohexyl}-thiophen-2-yl-methyl)-dimethylamine] | 84%
CN(C)C(c1cccc(F)c1)C1CCC(CC(c2nc(Cc3ccccc3)c(N3CCCC3)o2)N2CCOCC2)CC1 (centres unmarked) [compound 149, [{4-[2-(4-benzyl-5-pyrrolidin-1-yl-oxazol-2-yl)-2-morpholin-4-yl-ethyl]-cyclohexyl}-(3-fluorophenyl)-methyl]-dimethylamine] | 87%
CN(C)C(c1cccc(F)c1)C1CCC(CC(c2nc(Cc3ccccc3)c(N3CCOCC3)o2)N2CCOCC2)CC1 (centres unmarked) [compound 150, [{4-[2-(4-benzyl-5-morpholin-4-yl-oxazol-2-yl)-2-morpholin-4-yl-ethyl]-cyclohexyl}-(3-fluorophenyl)-methyl]-dimethylamine] | 75%
COc1ccc(N2CCN(c3oc(C(CC4CCC(C(c5cccc(F)c5)N(C)C)CC4)N4CCOCC4)nc3Cc3ccccc3)CC2)cc1 (centres unmarked) [compound 151, [[4-(2-{4-benzyl-5-[4-(4-methoxyphenyl)-piperazin-1-yl]-oxazol-2-yl}-2-morpholin-4-yl-ethyl)-cyclohexyl]-(3-fluorophenyl)-methyl]-dimethylamine] | 89%
CC1CN(c2oc(C(CC3CCC(C(c4cccc(F)c4)N(C)C)CC3)N3CCOCC3)nc2Cc2ccccc2)CC(C)O1 (centres unmarked) [compound 152, [(4-{2-[4-benzyl-5-(2,6-dimethylmorpholin-4-yl)-oxazol-2-yl]-2-morpholin-4-yl-ethyl}-cyclohexyl)-(3-fluorophenyl)-methyl]-dimethylamine] | 65%
CC1CN(c2oc(C(CC3CCC(C(c4cccc(F)c4)N(C)C)CC3)N3CCN(c4ccc(F)cc4)CC3)nc2Cc2ccccc2)CC(C)O1 (centres unmarked) [compound 153, [(4-{2-[4-benzyl-5-(2,6-dimethylmorpholin-4-yl)-oxazol-2-yl]-2-[4-(4-fluorophenyl)-piperazin-1-yl]-ethyl}-cyclohexyl)-(3-fluorophenyl)-methyl]-dimethylamine] | 71%
COc1ccc(N2CCN(C(CC3CCC(C(c4cccc(F)c4)N(C)C)CC3)c3nc(Cc4ccccc4)c(N4CCOCC4)o3)CC2)cc1 (centres unmarked) [compound 154, [(4-{2-(4-benzyl-5-morpholin-4-yl-oxazol-2-yl)-2-[4-(4-methoxy-phenyl)-piperazin-1-yl]-ethyl}-cyclohexyl)-(3-fluorophenyl)-methyl]-dimethylamine] | 86%
COc1ccc(N2CCN(c3oc(C(CC4CCC(C(c5cccc(F)c5)N(C)C)CC4)N4CCN(c5ccc(OC)cc5)CC4)nc3Cc3ccccc3)CC2)cc1 (centres unmarked) [compound 155, [(4-{2-{4-benzyl-5-[4-(4-methoxyphenyl)-piperazin-1-yl]-oxazol-2-yl}-2-[4-(4-methoxyphenyl)-piperazin-1-yl]-ethyl}-cyclohexyl)-(3-fluorophenyl)-methyl]-dimethylamine] | 82%
COc1ccc(N2CCN(C(CC3CCC(C(c4cccc(F)c4)N(C)C)CC3)c3nc(Cc4ccccc4)c(N4CC(C)OC(C)C4)o3)CC2)cc1 (centres unmarked) [compound 156, [(4-{2-[4-benzyl-5-(2,6-dimethylmorpholin-4-yl)-oxazol-2-yl]-2-[4-(4-methoxyphenyl)-piperazin-1-yl]-ethyl}-cyclohexyl)-(3-fluorophenyl)-methyl]-dimethylamine] | 74%
COc1ccc(N2CCN(c3oc(C(CC4CCC(C(c5cccc(F)c5)N(C)C)CC4)N4CCc5ccccc5C4)nc3Cc3ccccc3)CC2)cc1 (centres unmarked) [compound 157, [{4-[2-{4-benzyl-5-[4-(4-methoxy-phenyl)-piperazin-1-yl]-oxazol-2-yl}-2-(3,4-dihydro-1H-isoquinolin-2-yl)-ethyl]-cyclohexyl}-(3-fluorophenyl)-methyl]-dimethylamine] | 84%
CN(C)C(c1cccs1)C1CCC(CC(c2nc(Cc3ccccc3)c(N3CCOCC3)o2)N2CCOCC2)CC1 (centres unmarked) [compound 158, ({4-[2-(4-benzyl-5-morpholin-4-yl-oxazol-2-yl)-2-morpholin-4-yl-ethyl]-cyclohexyl}-thiophen-2-yl-methyl)-dimethylamine] | 83%
COc1ccc(N2CCN(c3oc(C(CC4CCC(C(c5cccs5)N(C)C)CC4)N4CCOCC4)nc3Cc3ccccc3)CC2)cc1 (centres unmarked) [compound 159, {[4-(2-{4-benzyl-5-[4-(4-methoxyphenyl)-piperazin-1-yl]-oxazol-2-yl}-2-morpholin-4-yl-ethyl)-cyclohexyl]-thiophen-2-yl-methyl}-dimethylamine] | 94%
CC1CN(c2oc(C(CC3CCC(C(c4cccs4)N(C)C)CC3)N3CCOCC3)nc2Cc2ccccc2)CC(C)O1 (centres unmarked) [compound 160, [(4-{2-[4-benzyl-5-(2,6-dimethyl-morpholin-4-yl)-oxazol-2-yl]-2-morpholin-4-yl-ethyl}-cyclohexyl)-thiophen-2-yl-methyl]-dimethylamine] | 79%
CN(C)C(c1cccs1)C1CCC(CC(c2nc(Cc3ccccc3)c(N3CCOCC3)o2)N2CCN(c3ccc(F)cc3)CC2)CC1 (centres unmarked) [compound 161, [(4-{2-(4-benzyl-5-morpholin-4-yl-oxazol-2-yl)-2-[4-(4-fluorophenyl)-piperazin-1-yl]-ethyl}-cyclohexyl)-thiophen-2-yl-methyl]-dimethylamine] | 87%
COc1ccc(N2CCN(c3oc(C(CC4CCC(C(c5cccs5)N(C)C)CC4)N4CCN(c5ccc(F)cc5)CC4)nc3Cc3ccccc3)CC2)cc1 (centres unmarked) [compound 162, [(4-{2-{4-benzyl-5-[4-(4-methoxy-phenyl)-piperazin-1-yl]-oxazol-2-yl}-2-[4-(4-fluorophenyl)-piperazin-1-yl]-ethyl}-cyclohexyl)-thiophen-2-yl-methyl]-dimethylamine] | 96%
COc1ccc(N2CCN(C(CC3CCC(C(c4cccs4)N(C)C)CC3)c3nc(Cc4ccccc4)c(N4CCCC4)o3)CC2)cc1 (centres unmarked) [compound 163, [(4-{2-(4-benzyl-5-pyrrolidin-1-yl-oxazol-2-yl)-2-[4-(4-methoxyphenyl)-piperazin-1-yl]-ethyl}-cyclohexyl)-thiophen-2-yl-methyl]-dimethylamine] | 83%
COc1ccc(N2CCN(c3oc(C(CC4CCC(C(c5cccs5)N(C)C)CC4)N4CCN(c5ccc(OC)cc5)CC4)nc3Cc3ccccc3)CC2)cc1 (centres unmarked) [compound 164, [(4-{2-{4-benzyl-5-[4-(4-methoxyphenyl)-piperazin-1-yl]-oxazol-2-yl}-2-[4-(4-methoxyphenyl)-piperazin-1-yl]-ethyl}-cyclohexyl)-thiophen-2-yl-methyl]-dimethylamine] | 93%
COc1ccc(N2CCN(C(CC3CCC(C(c4cccs4)N(C)C)CC3)c3nc(Cc4ccccc4)c(N4CC(C)OC(C)C4)o3)CC2)cc1 (centres unmarked) [compound 165, [(4-{2-[4-benzyl-5-(2,6-dimethyl-morpholin-4-yl)-oxazol-2-yl]-2-[4-(4-methoxyphenyl)-piperazin-1-yl]-ethyl}-cyclohexyl)-thiophen-2-yl-methyl]-dimethylamine] | 93%
COc1ccc(N2CCN(c3oc(C(CC4CCC(C(c5cccs5)N(C)C)CC4)N4CCc5ccccc5C4)nc3Cc3ccccc3)CC2)cc1 (centres unmarked) [compound 166, ({4-[2-{4-benzyl-5-[4-(4-methoxy-phenyl)-piperazin-1-yl]-oxazol-2-yl}-2-(3,4-dihydro-1H-isoquinolin-2-yl)-ethyl]-cyclohexyl}-thiophen-2-yl-methyl)-dimethylamine] | 78%
